# In US6475991B2, “Use of α-alkylglucosides and α-alkylglucoside esters as anti-microbial an agents” (Ulice, priority 1996, dated 2002):
# What was measured:
# Format in all cases: cell-based
# [1] = tested on: Candida albicans, Aspergillus niger; assay: Preservative efficacy test (Pharmacopée Française), fungicidal effect (yeasts and moulds); conditions: concentrations of 1% to 3%
# Protocol: (§1) The inventors thus tested the bactericidal and/or fungicidal activity of α-alkylglucoside and α-alkylglucoside ester type compounds to determine the conditions, in particular the concentrations, under which said compounds have to be used for the desired activities to be obtained. The results of these tests were analysed in accordance with the “Pharmacopée Françcaise” which describes a methodology for monitoring the efficacy of antimicrobial preservation agents in pharmaceutical preparations and establishes minimum efficacy criteria as a function of the administration routes of a medicine. Thus specific criteria are fixed for topical patent medicines which can be considered to be close to cosmetic products in their conception. The recommended and significant criteria for bactericidal and/or fungicidal activity of a product are:
# (§2) for a fungicidal effect (yeasts and moulds) (Candida albicans, Aspergillus niger):
# (§3) reduction of one logarithmic unit in 14 days with respect to the initial population;
# (§4) no increase in microbial growth after 14 days and up to the 28th day, when the test is stopped.
# (§5) In order to facilitate visualisation of the bactericidal or fungicidal effect of the tested compounds, the results obtained were transcribed into the graphical forms of FIG. 5 which show the reduction in the number of germs in logarithmic units, over time (1 day, 7 days, 14 days, 21 days, 28 days).
# Aspergillus niger = assay: Preservative efficacy test (Pharmacopée Française), fungicidal effect on Aspergillus niger; conditions: concentration of 5%
# Protocol: as §1, §2, §3, §4, §5
# [2] = tested on: Staphylococcus aureus, Pseudomonas aeruginosa, Escherichia coli; assay: Preservative efficacy test (Pharmacopée Française), bactericidal effect
# Protocol: as §1
# for a bactericidal effect (Staphylococcus aureus, Pseudomonas aeruginosa, Escherichia coli):
# reduction of 3 logarithmic units in 14 days with respect to the initial population;
# no increase in microbial growth after 14 days and up to the 28th day, when the test is stopped;
# as §5
compound,measurement,setting,value
"CCCCO[C@H]1O[C@H](CO)[C@@H](O)[C@H](O)[C@H]1O [α-BG, α-butylglucoside]",compliance with fungicidal standards,[1],satisfy the fungicidal standards
same,fungicidal activity on Aspergillus niger at 5% versus lower concentrations,Aspergillus niger,less active than at lower concentrations
same,compliance with bactericidal standards of the Pharmacopée Française,[2]; concentrations above 1%,corresponds to the bactericidal standards
same,logarithmic reduction (bactericidal effect),"[2]; concentrations above 1% (1% to 5%), after 14 days",more than 3 logarithmic units
same,increase in the number of strains after 14 days,"[2]; concentrations above 1%, after 14 days",no subsequent increase in the number of strains
same,reduction in the number of germs,[2]; concentrations of less than 0.8%,small reduction in the number of germs
